Test results: patent US5230998A, “Method for the prescreening of drugs targeted to the V3 hypervariable loop of the HIV-1 envelope glycoprotein gp 120” (priority 1991, dated 1993)
≈ marks a conversion by molar mass, not a printed value.

Columns and labels:
HIV-1 = experiment: Antiviral activity: inhibition of P24 production in MT-2 cells; format: cell-based, HIV-1 IIIB
Experimental: All chemicals were tested at serial two-fold dilutions (1.25-80 μg/ml, prepared from a stock solution containing 10 mg/ml in dimethylsulfoxide). The chemicals were obtained from Aldrich, Milwaukee, Wis. or were synthesized. Their inhibitory activity was determined by two distinct methods, based on inhibition of synthesis of core protein P24 and on protection by the chemicals of cells against the cytopathic effect of HIV-1 (colorimetric method) respectively.
The chemicals were serially diluted in RPMI 1640 medium without phenol red (GIBCO, Grand Island, N.Y.) containing 10% fetal calf serum (FCS). Aliquots of the diluted solutions were added to wells of 96 well plates and mixed with an equal volume of diluted HIV-1 [multiplicity of infection (MOI) =0.0045]. After incubation for 1 hour at 37° C., 25 μl of polybrene (1 μg/ml) treated MT-2 cells (Harada, S., Koyanagi, Y., Yamamoto, N., (1985), "Infection of HTLV-III/LAV in HTLV-I-carrying Cells MT-2 and MT-4 and Application in a Plaque Assay", Science, 229, 563-566), (5,000 cells/well) were added. The mixture was incubated for 1 hour at 37° C. and the volume was adjusted with RPMI 1640 medium with 10% FCS to 200 μl. On the fourth day after incubation at 37° C., 100 μl of culture supernatants were collected from each well and equal volumes of fresh medium were added to the wells. The supernatants were assayed for P24 using a kit from Coulter Immunology (Hialeah, Fla.). On the sixth day, an indicator XTT tetrazolium dye (1 mg/ml; 50 μl/well; PolySciences, Inc., Warrington, Penna.) was added to the cells. After 4 hours, intracellular formazan was determined colorimetrically at 450 nm.
^c Chemicals with inhibitory activity in ELISA (RIA) tests were teste
^d EC50 = concentration at which the production of P24 was […]

[1] = molecular target: T1, HIV-1 IIIB glycoprotein gp120 V3 hypervariable loop (Human immunodeficiency virus type 1 BH10, UniProt P03375); experiment: Inhibition of the reaction between HIV-1 IIIB gp120 and three distinct antibodies reacting with the V3 hypervariable loop (FIGS. 8-11); format: binding; conditions: 60 μg/ml, metal complexes versus uncomplexed
T1 construct: b180 also mentions the V3 loop peptide
Experimental: (§1) FIG. 8 is a bar graph depicting the inhibitory effect of chlorine6 (60 μg/ml) and metal chelates thereof on the reaction between HIV-1 IIIB glycoprotein gp120 and three distinct antibodies reacting with the V3 hypervariable loop of this glycoprotein. The antisera used were rabbit antiserum to a synthetic peptide corresponding to the V3 hypervariable loop of HIV-1 clone BH10, serum of a chimpanzee immunized with V3 hypervariable loop peptides of distinct HIV-1 isolates and monoclonal antibodies (McAb NEA 9305) raised against residues (315-329) of the V3 hypervariable loop of HIV-1 BH10 (Neurath et al (1990), Molec. Immunol., 27, 539-549).
FIG. 9 is a bar graph depicting the inhibitory effect of deuteroporphyrin IX,2-vinyl,4-hydroxymethyl (60 μg/ml) and metal chelates thereof on the reaction between HIV-1 IIIB glycoprotein gp120 and three distinct antibodies reacting with the V3 hypervarible loop of this glycoprotein. The antisera used were rabbit antiserum to a synthetic peptide corresponding to the V3 hypervariable loop of HIV-1 clone BH10, serum of a chimpanzee immunized with V3 hypervariable loop peptides of distinct HIV-1 isolates and monoclonal antibodies (McAb NEA 9305) raised against a synthetic peptide corresponding to residues (315-329) of the V3 hypervariable loop of HIV-1 BH10 (Neurath et al (1990), Molec. Immunol 27, 539-549).
as §1, with “FIG. 10” for “FIG. 8”, “of meso-tetra (4-carboxyphenyl)porphine” for “of chlorine6”, “against a synthetic peptide corresponding to” for “against”, “HIV-1 BH10.” for “HIV-1 BH10”
as §1, with “FIG. 11” for “FIG. 8”, “of uroporphyrin III” for “of chlorine6”, “against a synthetic peptide corresponding to” for “against”, “et al,” for “et al”, “Molec. lmmunol.,” for “Molec. Immunol.,”, “27, 539-549)” for “27, 539-549).”
Monoclonal antibodies (McAbs) recognizing the V3 hypervariable loop of HIV-1 BH 10 (McAb 9305 from DuPont, Wilmington, Del.) and an antiserum from a chimpanzee immunized with a mixture of V3 hypervariable loop peptides from 21 distinct HIV1 isolates (Girard, M., Kieny, M-P., Pinter, A., Barre-Sinoussi, F., Nara, P., Kolbe, H., Kusumi, K., Chaput, A., Reinhart, T., Muchmore, E, Ronco, J., Kaczorek, M., Gomard, E, Gluckman, JC., Fultz, P. N. (1991), "Immunization of Chimpanzees Confers Protection Against Challenge with Human Immunodeficiency Virus", Proc. Natl. Acad. Sci. USA, 88, 542-546) were also used for studies on the inhibitory affect of ATA on the reaction between these antibodies and gp120, using ELISA tests. These tests were carried out similarly as RIA, except that sodium merthiolate (1 mg/ml) was added to the buffers instead of NaN3, and goat antimouse IgG antibodies (Boehringer Mannheim Biochemicals, Indianapolis, Ind.) and goat anti-human IgG antibodies (Sigma, St. Louis, Mo.), respectively, each linked to horseradish peroxidase were used as second antibodies at final dilutions of 1:1,000 in phosphate-buffered saline (PBS) containing 10% goat serum and 0.1% Tween 20. […]

C=Cc1c(C)c2cc3nc(c(CC(=O)O)c4[nH]c(cc5nc(cc1[nH]2)C(C)=C5CC)c(C)c4C(=O)O)[C@@H](CCC(=O)O)[C@@H]3C [substance #149, chlorine e6]
EC50 (HIV-1; Human immunodeficiency virus 1, MT2, read-out: EC50 (concentration at which the production of P24 was reduced to 50% of that detected in control cultures)): 0.8 µg/mL (≈ 1.34 µM)
inhibition at 40 µg/mL (HIV-1; Human immunodeficiency virus 1, MT2, read-out: percentage of inhibition of P24 nucleoprotein production): 100%
inhibitory activity on the interaction between the V3 hypervariable loop of HIV-1-IIIB and antisera [1]: considerable inhibitory activity
